Measured values: EP1005445B1, “N-ALKANOYLPHENYLALANINE DERIVATIVES” (F. HOFFMANN-LA ROCHE AG, priority 1997, dated 1999)
Where “and” joins values, the source holds several entries; their conditions need not be identical. Identical values can stand only once.

Tests used:
[1] = biological target: T1, VLA-4 (a4b1 integrin) (Homo sapiens, UniProt P05556+P13612); experiment: VLA-4 / VCAM-1 Screening Assay (solid-phase, dual antibody ELISA); settings: Ramos cell-derived VLA-4 binding to immobilized recombinant human VCAM-1, 1 mM MnCl2, 2 hr at 37 °C
T1 construct: followed by 10 µl of Ramos cell-derived VLA-4; endogenous in cells; host or cells: Ramos cells (VLA-4 preparation derived from the cells)
T1 sequence (P13612 34-1032): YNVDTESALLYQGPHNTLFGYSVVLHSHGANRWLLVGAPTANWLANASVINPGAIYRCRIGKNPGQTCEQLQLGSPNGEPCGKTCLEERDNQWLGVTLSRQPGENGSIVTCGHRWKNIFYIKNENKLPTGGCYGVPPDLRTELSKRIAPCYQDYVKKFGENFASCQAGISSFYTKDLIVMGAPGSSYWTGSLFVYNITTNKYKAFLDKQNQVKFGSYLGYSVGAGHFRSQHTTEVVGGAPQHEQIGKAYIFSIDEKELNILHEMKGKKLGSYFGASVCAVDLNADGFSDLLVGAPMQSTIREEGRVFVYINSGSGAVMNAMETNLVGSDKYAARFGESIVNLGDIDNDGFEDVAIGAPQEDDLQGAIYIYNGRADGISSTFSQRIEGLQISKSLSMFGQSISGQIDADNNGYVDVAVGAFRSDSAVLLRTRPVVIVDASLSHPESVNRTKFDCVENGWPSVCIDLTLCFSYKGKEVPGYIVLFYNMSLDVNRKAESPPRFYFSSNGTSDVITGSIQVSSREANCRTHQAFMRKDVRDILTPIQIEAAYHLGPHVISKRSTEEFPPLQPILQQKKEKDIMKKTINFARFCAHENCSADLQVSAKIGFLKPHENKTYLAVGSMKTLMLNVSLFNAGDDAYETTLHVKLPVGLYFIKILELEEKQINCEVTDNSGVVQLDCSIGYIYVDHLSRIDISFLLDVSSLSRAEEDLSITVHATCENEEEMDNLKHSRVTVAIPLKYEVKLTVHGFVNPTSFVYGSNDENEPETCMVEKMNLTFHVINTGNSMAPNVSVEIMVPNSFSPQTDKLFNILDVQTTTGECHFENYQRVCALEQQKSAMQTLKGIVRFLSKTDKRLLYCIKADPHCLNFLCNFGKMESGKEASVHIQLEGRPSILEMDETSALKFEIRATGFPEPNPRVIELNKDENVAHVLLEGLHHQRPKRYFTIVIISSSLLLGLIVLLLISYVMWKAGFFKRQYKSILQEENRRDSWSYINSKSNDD
T1 sequence (P05556 21-798): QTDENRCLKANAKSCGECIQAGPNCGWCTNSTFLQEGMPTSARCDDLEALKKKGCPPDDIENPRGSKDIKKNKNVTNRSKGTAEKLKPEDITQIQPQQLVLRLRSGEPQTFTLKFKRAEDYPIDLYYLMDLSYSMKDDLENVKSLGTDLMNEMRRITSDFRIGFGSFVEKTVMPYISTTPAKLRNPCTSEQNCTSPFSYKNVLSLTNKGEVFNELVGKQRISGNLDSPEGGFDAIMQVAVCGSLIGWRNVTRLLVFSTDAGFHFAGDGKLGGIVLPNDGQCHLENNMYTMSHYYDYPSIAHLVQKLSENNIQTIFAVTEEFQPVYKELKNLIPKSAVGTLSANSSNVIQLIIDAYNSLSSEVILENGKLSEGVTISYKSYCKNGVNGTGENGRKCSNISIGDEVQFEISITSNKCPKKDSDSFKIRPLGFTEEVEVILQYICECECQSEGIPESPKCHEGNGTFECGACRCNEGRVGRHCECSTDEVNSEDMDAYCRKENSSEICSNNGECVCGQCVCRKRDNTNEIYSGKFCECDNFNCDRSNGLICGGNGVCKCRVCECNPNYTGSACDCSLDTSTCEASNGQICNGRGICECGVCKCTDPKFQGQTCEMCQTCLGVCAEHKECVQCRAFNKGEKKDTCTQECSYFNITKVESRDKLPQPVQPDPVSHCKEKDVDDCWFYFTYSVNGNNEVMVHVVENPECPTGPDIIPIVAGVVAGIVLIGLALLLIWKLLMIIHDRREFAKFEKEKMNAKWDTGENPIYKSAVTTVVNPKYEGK
Description: VLA-4 / VCAM-1 Screening Assay
VLA-4 antagonist activity, defined as ability to compete for binding to immobilized VCAM-1, was quantitated using a solid-phase, dual antibody ELISA. VLA-4 (a4b1 integrin) bound to VCAM-1 is detected by a complex of anti-integrin b1 antibody: HRP-conjugated anti-mouse IgG: chromogenic substrate (K-Blue). Initially, this entailed coating 96 well plates (Nunc Maxisorp) with recombinant human VCAM-1 (0.4 µg in 100 µl PBS), sealing each plate and then allowing the plates to stand at 4°C for Å18 hr. […] On the day of assay, all plates are washed twice with VCAM Assay Buffer (200 µl/well of 50 mM Tris-HCl, 100 mM NaCl, 1 mM MnCl2, 0.05% Tween 20; pH 7.4). Test compounds are dissolved in 100% DMSO and then diluted 1:20 in VCAM Assay Buffer supplemented with 1mg/mL BSA (i.e., final DMSO = 5%). […] 100 µl per well of each dilution is added to the VCAM-coated plates, followed by 10 µl of Ramos cell-derived VLA-4. These plates are sequentially mixed on a platform shaker for 1 min, incubated for 2 hr at 37 °C, and then washed four times with 200 µl/well VCAM Assay Buffer. 100 µl of mouse anti-human integrin b1 antibody is added to each well (0.6 µg/mL in VCAM Assay Buffer + 1mg/mL BSA) and allowed to incubate for 1 hr at 37°C. At the conclusion of this incubation period, all plates are washed four times with VCAM Assay Buffer (200 µl/well). A corresponding second antibody, HRP-conjugated goat anti-mouse IgG (100 µl per well @ 1:800 dilution in VCAM Assay Buffer + 1mg/mL BSA), is then added to each well, followed by a 1 hr incubation at room temperature and concluded by three washes (200µl/well) with VCAM Assay Buffer. Color development is initiated by addition of 100 µl K-Blue per well (15 min incubation, room temp) and terminated by addition of 100 µl Red Stop Buffer per well. […] Results are calculated as % inhibition of total binding (i.e., VLA-4 + VCAM-1 in the absence of test compound).

[2] = biological target: T1, VLA-4 (a4b1 integrin); experiment: Ramos (VLA-4) / VCAM-1 Cell-Based Screening Assay (cell adhesion)
Text: Ramos (VLA-4) / VCAM-1 Cell-Based Screening Assay Protocol
Calcein-AM was purchased from Molecular Probes Inc.
VLA-4 (a4b1 integrin) antagonist activity, defined as ability to compete with cell-surface VLA-4 for binding to immobilized VCAM-1, was quantitated using a Ramos-VCAM-1 cell adhesion assay. Ramos cells bearing cell-surface VLA-4, were labeled with a fluorescent dye (Calcein-AM) and allowed to bind VCAM-1 in the presence or absence of test compounds.
Initially, this entailed coating 96 well plates (Nunc Maxisorp) with recombinant human VCAM-1 (100 ng in 100 µl PBS), sealing each plate and allowing the plates to stand at 4°C for Å18 hr. The VCAM-coated plates were subsequently washed twice with 0.05% Tween-20 in PBS, and then blocked for 1hr (room temperature) with 200 µl of Blocking Buffer (1% BSA/0.02% thimerosal) to reduce non-specific binding. Following the incubation with Blocking Buffer, plates were inverted, blotted and the remaining buffer aspirated. Each plate was then washed with 300 µl PBS, inverted and the remaining PBS aspirated.
Test compounds were dissolved in 100% DMSO and then diluted 1:25 in VCAM Cell Adhesion Assay Buffer (4 mM CaCl2, 4 mM MgCl2 in 50 mM TRIS-HCl, pH 7.5) (final DMSO = 4%). […] 100 µl/well of each dilution was added to the VCAM-coated plates, followed by 100 µl of Ramos cells (200,000 cells/well in 1% BSA/PBS). […] Plates were inverted to remove non-adherent cells, blotted and 300 µl/well PBS added. Plates were again inverted, blotted and the remaining buffer gently aspirated. 100 µl Lysis Buffer (0.1% SDS in 50 mM TRIS-HCl, pH 8.5) was added to each well and agitated for 2 min on a rotary shaking platform.

[3] = Calcein-AM labeled Ramos cells adhering to immobilized recombinant human VCAM-1, 45 min at room temperature, read-out: Ramos IC50

| IC50 ([1]; read-out: ELISA IC50) | IC50 [2, 3] [nM] | Molecule | further results |
| --- | --- | --- | --- |
| 1.4 nM | 1270 | Cc1cccc(C(=O)N[C@@H](Cc2ccc(NC(=O)c3c(Cl)cccc3Cl)cc2)C(=O)O)c1Cl [Example 21] |  |
|  | 13.5 | 4-[(2S,4R)-3-Acetyl-2-phenyl-4-(3-pyridinylmethyl)-5-oxo-1-imidazolinyl]-N-[(2-chloro-6-methylphenyl)carbonyl]-L-phenylalanine and 4-[(2R,4R)-3-acetyl-2-phenyl-4-(3-pyridinylmethyl)-5-oxo-1-imidazolinyl]-N-[(2-chloro-6-methylphenyl)carbonyl]-L-phenylalanine [Example 171] |  |
| 0.33 nM | 15 | Cc1cccc(Cl)c1C(=O)N[C@@H](Cc1ccc(NC(=O)c2c(Cl)cccc2Cl)cc1)C(=O)O [Example 13] |  |
| 0.46 nM | 33 | O=C(N[C@@H](Cc1ccc(NC(=O)c2c(Cl)cccc2Cl)cc1)C(=O)O)c1ccc(O)cc1Cl [Example 95] |  |
| 1.6 nM | 1320 | O=C(N[C@@H](Cc1ccc(NC(=O)c2c(Cl)cccc2Cl)cc1)C(=O)O)c1ccc(Br)cc1Cl [Example 22] |  |
| 1.9 nM |  | CNc1ccccc1C(=O)N[C@@H](Cc1ccc(NC(=O)c2c(Cl)cccc2Cl)cc1)C(=O)O [Example 27] |  |
| 0.25 nM |  | COc1ccc(Br)c(C(=O)N[C@@H](Cc2ccc(NC(=O)c3c(Cl)cccc3Cl)cc2)C(=O)O)c1 [Example 24] |  |
| 1.2 nM | 23 | Cc1cccc(C(C)C)c1C(=O)N[C@@H](Cc1ccc(NC(=O)c2c(Cl)cccc2Cl)cc1)C(=O)O [Example 90] |  |
| 41 nM |  | CC(=O)N1[C@H](CC(C)C)C(=O)N(c2ccc(C[C@H](NC(=O)c3c(C)cccc3Cl)C(=O)O)cc2)[C@@H]1C(C)(C)C [Example 102] |  |
| 0.25 nM | 9.5 | CS(=O)(=O)c1ccc(C(=O)N[C@@H](Cc2ccc(NC(=O)c3c(Cl)cccc3Cl)cc2)C(=O)O)c(Cl)c1 [Example 94] |  |

Further lines, the molecule ahead of its results:

| Molecule | IC50 ([1]; read-out: ELISA IC50) | IC50 [2, 3] [nM] | further results |
| --- | --- | --- | --- |
| COC(=O)[C@H](Cc1ccc(N2C(=O)[C@@H](C(C)C)N(C)C2=O)cc1)NC(=O)c1c(C)cccc1Cl [Example 96, N-(2-Chloro-6-methylbenzoyl)-[(R)-2,5-dioxo-3-methyl-4-(1-methylethyl)-1-imidazolininyl]-L-phenylalanine methyl ester] | 0.47 nM |  |  |
| Cc1cccc(Cl)c1C(=O)N[C@@H](Cc1ccc(NC(=O)c2c(F)c(F)c(F)c(F)c2F)cc1)C(=O)O [Example 115, N-[1-(2-Chloro-6-methylphenyl)carbonyl]-4-[[(2,3,4,5,6-pentafluorophenyl)carbonyl]amino]-L-phenylalanine] | 4.5 nM | 678 |  |
| Cc1cccc(Cl)c1C(=O)N[C@@H](Cc1ccc(NC(=O)c2c(F)cccc2F)cc1)C(=O)O [Example 114, N-[1-(2-Chloro-6-methylphenyl)carbonyl]-4-[[(2,6-difluorophenyl)carbonyl]amino]-L-phenylalanine] | 1.14 nM |  |  |
| O=C(N[C@@H](Cc1ccc(NC(=O)c2c(Cl)cccc2Cl)cc1)C(=O)O)c1cccc(Cl)c1Cl [Example 20] | 2.2 nM | 1630 |  |
| C[S+]([O-])c1ccccc1C(=O)N[C@@H](Cc1ccc(NC(=O)c2c(Cl)cccc2Cl)cc1)C(=O)O (single isomer, unassigned) [Example 30, 4-[[(2,6-dichlorophenyl)carbonyl]amino]-N-[[2-(methylsulfinyl)phenyl]carbonyl]-L-phenylalanine] | 2 nM and 1.6 nM |  |  |
| COc1ccc(C(=O)N[C@@H](Cc2ccc(NC(=O)c3c(Cl)cccc3Cl)cc2)C(=O)O)c(Cl)c1 [Example 19] |  | 351 |  |
| O=C(Nc1ccc(C[C@H](NC(=O)c2c(F)cccc2C(F)(F)F)C(=O)O)cc1)c1c(Cl)cccc1Cl [Example 16] |  | 85 |  |
| CC(=O)N1C(Cc2ccccc2)C(=O)N(c2ccc(C[C@H](NC(=O)c3c(C)cccc3Cl)C(=O)O)cc2)C1c1ccccc1 (single isomer, unassigned) [Example 170] |  | 33.5 |  |
| Cc1cccc(Cl)c1C(=O)N[C@@H](Cc1ccc(NC(=O)c2c(C)ccnc2C)cc1)C(=O)O [Example 107] |  |  | IC50 ([1]; ELISA IC50 nM): 0.79 nM; IC50 [2]: 20 nM |
| Cc1cc(C(F)(F)F)c(C(=O)N[C@@H](Cc2ccc(NC(=O)c3c(Cl)cccc3Cl)cc2)C(=O)O)c(C)n1 [Example 156] |  | 114 |  |
| CC(C)c1cccc(C(C)C)c1C(=O)N[C@@H](Cc1ccc(NC(=O)c2c(Cl)cccc2Cl)cc1)C(=O)O [Example 18] | 11 nM |  |  |
| Cc1cc(C(F)(F)F)c(C(=O)Nc2ccc(C[C@H](NC(=O)c3c(C)cccc3Cl)C(=O)O)cc2)c(C)n1 [Example 150] |  |  | IC50 [2]: 47 nM |
| Cc1cccc(Cl)c1C(=O)N[C@@H](Cc1ccc(N2C(=O)c3ccc(C#N)cc3C2=O)cc1)C(=O)O [Example 125] |  |  | IC50 ([1]; read-out: ELISA IC50 nM): 1.7 nM |
| COc1ccccc1C(=O)N[C@@H](Cc1ccc(NC(=O)c2c(Cl)cccc2Cl)cc1)C(=O)O [Example 26] | 8.6 nM |  |  |
| CS(=O)(=O)c1ccccc1C(=O)N[C@@H](Cc1ccc(NC(=O)c2c(Cl)cccc2Cl)cc1)C(=O)O [Example 28] | 3.3 nM |  |  |
| O=C(Nc1ccc(C[C@H](NC(=O)c2cccc3ccccc23)C(=O)O)cc1)c1c(Cl)cccc1Cl [Example 15] |  | 2600 |  |
| Nc1ccc(C(=O)N[C@@H](Cc2ccc(NC(=O)c3c(Cl)cccc3Cl)cc2)C(=O)O)c(Cl)c1 [Example 124, N-[(4-amino-2-chlorophenyl)carbonyl]-4-[[(2,6-dichlorophenyl)carbonyl]amino]-L-phenylalanine] | 0.63 nM | 985 |  |
| Cc1cccc(Cl)c1C(=O)Nc1ccc(C[C@H](NC(=O)c2c(Cl)cccc2Cl)C(=O)O)cc1 [Example 169, N-[(2,6-Dichlorophenyl)carbonyl]-4-[[(2-chloro-6-methylphenyl)carbonyl]amino]-L-phenylalanine] |  | 30 |  |
